Values quoted from earlier work in patent US7208285B2 (priority 2001, dated 2007).

Target: BoNT/A (Clostridium botulinum, UniProt P0DPI1)
Sequence (P0DPI1 whole entry, looked up): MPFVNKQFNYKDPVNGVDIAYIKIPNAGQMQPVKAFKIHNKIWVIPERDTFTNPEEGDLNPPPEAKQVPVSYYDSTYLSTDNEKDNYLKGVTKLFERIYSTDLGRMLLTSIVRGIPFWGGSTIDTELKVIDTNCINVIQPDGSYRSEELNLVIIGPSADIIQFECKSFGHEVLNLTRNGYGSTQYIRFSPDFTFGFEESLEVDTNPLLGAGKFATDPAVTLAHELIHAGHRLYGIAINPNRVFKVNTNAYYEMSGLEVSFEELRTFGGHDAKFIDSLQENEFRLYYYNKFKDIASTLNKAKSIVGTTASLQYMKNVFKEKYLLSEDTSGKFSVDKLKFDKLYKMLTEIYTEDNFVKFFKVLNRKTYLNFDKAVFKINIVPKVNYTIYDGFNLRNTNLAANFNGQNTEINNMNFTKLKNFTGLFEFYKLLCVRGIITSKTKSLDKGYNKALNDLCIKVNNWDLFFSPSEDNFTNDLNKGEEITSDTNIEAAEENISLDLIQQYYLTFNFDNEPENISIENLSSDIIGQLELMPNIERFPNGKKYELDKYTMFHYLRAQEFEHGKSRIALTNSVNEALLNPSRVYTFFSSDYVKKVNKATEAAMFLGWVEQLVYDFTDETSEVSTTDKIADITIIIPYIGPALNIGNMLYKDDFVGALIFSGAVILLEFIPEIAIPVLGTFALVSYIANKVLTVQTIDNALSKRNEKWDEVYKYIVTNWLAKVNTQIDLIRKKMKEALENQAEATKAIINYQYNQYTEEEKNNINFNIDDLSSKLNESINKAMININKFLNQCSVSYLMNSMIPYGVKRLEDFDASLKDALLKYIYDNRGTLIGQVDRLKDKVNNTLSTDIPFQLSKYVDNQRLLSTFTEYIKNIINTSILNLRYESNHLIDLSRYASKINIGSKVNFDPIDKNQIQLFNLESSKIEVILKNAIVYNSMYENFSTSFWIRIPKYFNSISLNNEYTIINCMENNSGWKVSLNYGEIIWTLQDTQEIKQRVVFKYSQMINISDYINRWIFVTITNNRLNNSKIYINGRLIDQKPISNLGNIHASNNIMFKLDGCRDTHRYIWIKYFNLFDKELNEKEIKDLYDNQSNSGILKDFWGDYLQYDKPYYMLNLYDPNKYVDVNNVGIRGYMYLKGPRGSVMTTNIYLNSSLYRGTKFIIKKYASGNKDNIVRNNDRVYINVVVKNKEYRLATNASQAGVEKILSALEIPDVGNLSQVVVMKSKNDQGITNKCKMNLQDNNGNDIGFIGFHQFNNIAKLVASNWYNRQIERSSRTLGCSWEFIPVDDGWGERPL

Sequence | Relative Rate | relative rate of proteolysis
SNKTRIDEANQRBTKML [Peptide A13B] | 0.79 | 0.79
SNKTRIDEBNQRATKML [Peptide A9B] | 0.38 | 0.38
SNKTRIDEANQRATKML [[1–17]] | 1.00 | –
SNKTRINEANQRATKML [Peptide D7N] | 0.23 | 0.23
SNKTRIDEAAQRATKML [Peptide N10A] | 0.06 | –
SNKTRIDEANQRATKXL [Peptide M16X] | 1.20 | 1.20
SNKTRIDEANQRASKML [Peptide T14S] | 0.26 | 0.26
SNKTRIDQANQRATKML [Peptide E8Q] | 2.08 | 2.08
SNKTRIDEANNRATKML [Peptide Q11N] | 0.66 | 0.66
SNKTRIDEANARATKML [Peptide Q11A] | 0.19 | 0.19
SNKTRTDEANQRATKM [[1–16]] | 1.17 | –
SNKTRIDEANQRATKAL [Peptide M16A] | 0.38 | 0.38
SNKTRIDEANBRATKML [Peptide Q11B] | 0.25 | 0.25
SNKTRIDEANQRATAML [Peptide K15A] | 0.12 | 0.12
SNKTRIDEANQRATK [[1–15]] | 0.03 | –
SNKTRIDEANQRABKML [Peptide T14B] | 1.20 | 1.20
